How the values were obtained:
[1] = target: Beta-2 adrenergic receptor (Homo sapiens) (UniProt P07550); experiment: Beta2 (h) Eurofins-Cerep binding assay; design: ligand concentration 0.3 nM; settings: filed as antagonist, Compound concentration 10.0 uM
[2] = target: GABA-A receptor; anion channel (Rattus norvegicus) (UniProt O09028+P15431+P18506+P18508+P19969+P20236+P23574+P23576+P28471+P28473+P30191+P62813+P63079+P63138+Q91ZM7+Q9ES14); experiment: BZD (central) Eurofins-Cerep binding assay; assay type: protein-complex assay; design: ligand concentration 0.4 nM; settings: filed as agonist, Compound concentration 10.0 uM
[3] = target: Translocator protein (Rattus norvegicus) (UniProt P16257); experiment: BZD (peripheral) Eurofins-Cerep binding assay; design: ligand concentration 0.2 nM; settings: filed as antagonist, Compound concentration 10.0 uM
[4] = target: Tumor necrosis factor (Homo sapiens) (UniProt P01375); experiment: TNF-alpha (h) Eurofins-Cerep binding assay; settings: filed as agonist, Compound concentration 10.0 uM
[5] = target: Histamine H1 receptor (Homo sapiens) (UniProt P35367); experiment: H1 (h) Eurofins-Cerep binding assay; design: ligand concentration 1 nM; settings: filed as antagonist, Compound concentration 10.0 uM
[6] = target: Glucocorticoid receptor (Homo sapiens) (UniProt P04150); experiment: GR (h) Eurofins-Cerep binding assay; design: ligand concentration 1.5 nM; settings: filed as agonist, Compound concentration 10.0 uM
[7] = system: Tyrosine-protein kinase ABL1 (Homo sapiens), P00519 [F317L]; settings: Compound concentration 1000.0 nM
[8] = system: Tyrosine-protein kinase ABL1 (Homo sapiens), P00519 [M351T]; settings: Compound concentration 1000.0 nM
[9] = system: Tyrosine-protein kinase ABL1 (Homo sapiens), P00519 [T315I]; settings: Compound concentration 1000.0 nM
[10] = system: Tyrosine-protein kinase ABL1 (Homo sapiens), P00519 [Y253F]; settings: Compound concentration 1000.0 nM
[11] = target: 5'-AMP-activated protein kinase catalytic subunit alpha-1 (Homo sapiens) (UniProt Q13131); settings: Compound concentration 1000.0 nM
[12] = target: Bone morphogenetic protein receptor type-1A (Homo sapiens) (UniProt P36894); settings: Compound concentration 1000.0 nM
[13] = target: Calcium/calmodulin-dependent protein kinase type 1 (Homo sapiens) (UniProt Q14012); settings: Compound concentration 1000.0 nM
[14] = target: Cyclin-dependent kinase 11A (Homo sapiens) (UniProt Q9UQ88); settings: Compound concentration 1000.0 nM
[15] = target: Dual specificity protein kinase CLK1 (Homo sapiens) (UniProt P49759); settings: Compound concentration 1000.0 nM
[16] = target: Casein kinase I isoform alpha-like (Homo sapiens) (UniProt Q8N752); settings: Compound concentration 1000.0 nM
[17] = target: Epithelial discoidin domain-containing receptor 1 (Homo sapiens) (UniProt Q08345); settings: Compound concentration 1000.0 nM
[18] = target: Myotonin-protein kinase (Homo sapiens) (UniProt Q09013); settings: Compound concentration 1000.0 nM
[19] = target: Receptor tyrosine-protein kinase erbB-4 (Homo sapiens) (UniProt Q15303); settings: Compound concentration 1000.0 nM
[20] = target: Mitogen-activated protein kinase 1 (Homo sapiens) (UniProt P28482); settings: Compound concentration 1000.0 nM
[21] = target: Mitogen-activated protein kinase 15 (Homo sapiens) (UniProt Q8TD08); settings: Compound concentration 1000.0 nM
[22] = target: Fibroblast growth factor receptor 3 (Homo sapiens) (UniProt P22607); settings: Compound concentration 1000.0 nM
[23] = system: Fibroblast growth factor receptor 3 (Homo sapiens), P22607 [G697C]; settings: Compound concentration 1000.0 nM
[24] = target: Fibroblast growth factor receptor 4 (Homo sapiens) (UniProt P22455); settings: Compound concentration 1000.0 nM
[25] = target: Vascular endothelial growth factor receptor 1 (Homo sapiens) (UniProt P17948); settings: Compound concentration 1000.0 nM
[26] = system: Receptor-type tyrosine-protein kinase FLT3 (Homo sapiens), P36888 [UNDEFINED MUTATION]; settings: Compound concentration 1000.0 nM
[27] = target: Rhodopsin kinase GRK7 (Homo sapiens) (UniProt Q8WTQ7); settings: Compound concentration 1000.0 nM
[28] = target: Glycogen synthase kinase-3 alpha (Homo sapiens) (UniProt P49840); settings: Compound concentration 1000.0 nM
[29] = system: Mast/stem cell growth factor receptor Kit (Homo sapiens), P10721 [A829P]; settings: Compound concentration 1000.0 nM
[30] = target: Serine/threonine-protein kinase 10 (Homo sapiens) (UniProt O94804); settings: Compound concentration 1000.0 nM
[31] = target: Leucine-rich repeat serine/threonine-protein kinase 2 (Homo sapiens) (UniProt Q5S007); settings: Compound concentration 1000.0 nM
[32] = target: Mitogen-activated protein kinase kinase kinase 13 (Homo sapiens) (UniProt O43283); settings: Compound concentration 1000.0 nM
[33] = target: Myosin light chain kinase family member 4 (Homo sapiens) (UniProt Q86YV6); settings: Compound concentration 1000.0 nM
[34] = target: Serine/threonine-protein kinase Nek11 (Homo sapiens) (UniProt Q8NG66); settings: Compound concentration 1000.0 nM
[35] = target: Serine/threonine-protein kinase PAK 3 (Homo sapiens) (UniProt O75914); settings: Compound concentration 1000.0 nM
[36] = target: Cyclin-dependent kinase 17 (Homo sapiens) (UniProt Q00537); settings: Compound concentration 1000.0 nM
[37] = target: Phosphorylase b kinase gamma catalytic chain, skeletal muscle/heart isoform (Homo sapiens) (UniProt Q16816); settings: Compound concentration 1000.0 nM
[38] = target: Phosphatidylinositol 5-phosphate 4-kinase type-2 gamma (Homo sapiens) (UniProt Q8TBX8); settings: Compound concentration 1000.0 nM
[39] = target: Serine/threonine-protein kinase D2 (Homo sapiens) (UniProt Q9BZL6); settings: Compound concentration 1000.0 nM
[40] = target: Serine/threonine-protein kinase RIO3 (Homo sapiens) (UniProt O14730); settings: Compound concentration 1000.0 nM
[41] = target: Mitogen-activated protein kinase kinase kinase 7 (Homo sapiens) (UniProt O43318); settings: Compound concentration 1000.0 nM
[42] = target: Serine/threonine-protein kinase tousled-like 1 (Homo sapiens) (UniProt Q9UKI8); settings: Compound concentration 1000.0 nM
[43] = target: TRAF2 and NCK-interacting protein kinase (Homo sapiens) (UniProt Q9UKE5); settings: Compound concentration 1000.0 nM
[44] = target: Serine/threonine-protein kinase WNK2 (Homo sapiens) (UniProt Q9Y3S1); settings: Compound concentration 1000.0 nM

Chain of Serine/threonine-protein kinase tousled-like 1 (Homo sapiens) (Q9UKI8 whole entry): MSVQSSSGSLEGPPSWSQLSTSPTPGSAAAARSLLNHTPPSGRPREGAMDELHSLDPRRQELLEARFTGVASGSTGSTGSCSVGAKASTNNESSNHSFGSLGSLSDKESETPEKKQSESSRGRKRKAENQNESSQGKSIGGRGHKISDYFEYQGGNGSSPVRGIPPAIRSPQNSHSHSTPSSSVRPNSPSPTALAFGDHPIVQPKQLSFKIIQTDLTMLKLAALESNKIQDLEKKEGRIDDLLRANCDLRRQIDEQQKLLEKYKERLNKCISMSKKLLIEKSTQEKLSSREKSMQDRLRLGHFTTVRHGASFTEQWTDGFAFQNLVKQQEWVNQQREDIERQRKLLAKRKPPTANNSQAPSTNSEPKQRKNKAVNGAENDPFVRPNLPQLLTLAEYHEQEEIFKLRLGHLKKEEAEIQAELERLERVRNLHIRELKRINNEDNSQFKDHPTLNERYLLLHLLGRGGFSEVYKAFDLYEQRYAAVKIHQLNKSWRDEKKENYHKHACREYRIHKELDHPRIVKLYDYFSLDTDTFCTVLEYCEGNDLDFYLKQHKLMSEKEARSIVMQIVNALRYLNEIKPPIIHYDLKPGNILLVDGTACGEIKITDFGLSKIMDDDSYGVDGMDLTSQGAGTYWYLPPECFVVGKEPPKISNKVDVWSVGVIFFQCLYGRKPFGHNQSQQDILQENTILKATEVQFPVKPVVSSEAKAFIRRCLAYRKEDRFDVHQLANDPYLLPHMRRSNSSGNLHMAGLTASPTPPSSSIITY
Chain of Receptor-type tyrosine-protein kinase FLT3 (Homo sapiens), P36888 [UNDEFINED MUTATION] (P36888 whole entry, looked up, change not shown): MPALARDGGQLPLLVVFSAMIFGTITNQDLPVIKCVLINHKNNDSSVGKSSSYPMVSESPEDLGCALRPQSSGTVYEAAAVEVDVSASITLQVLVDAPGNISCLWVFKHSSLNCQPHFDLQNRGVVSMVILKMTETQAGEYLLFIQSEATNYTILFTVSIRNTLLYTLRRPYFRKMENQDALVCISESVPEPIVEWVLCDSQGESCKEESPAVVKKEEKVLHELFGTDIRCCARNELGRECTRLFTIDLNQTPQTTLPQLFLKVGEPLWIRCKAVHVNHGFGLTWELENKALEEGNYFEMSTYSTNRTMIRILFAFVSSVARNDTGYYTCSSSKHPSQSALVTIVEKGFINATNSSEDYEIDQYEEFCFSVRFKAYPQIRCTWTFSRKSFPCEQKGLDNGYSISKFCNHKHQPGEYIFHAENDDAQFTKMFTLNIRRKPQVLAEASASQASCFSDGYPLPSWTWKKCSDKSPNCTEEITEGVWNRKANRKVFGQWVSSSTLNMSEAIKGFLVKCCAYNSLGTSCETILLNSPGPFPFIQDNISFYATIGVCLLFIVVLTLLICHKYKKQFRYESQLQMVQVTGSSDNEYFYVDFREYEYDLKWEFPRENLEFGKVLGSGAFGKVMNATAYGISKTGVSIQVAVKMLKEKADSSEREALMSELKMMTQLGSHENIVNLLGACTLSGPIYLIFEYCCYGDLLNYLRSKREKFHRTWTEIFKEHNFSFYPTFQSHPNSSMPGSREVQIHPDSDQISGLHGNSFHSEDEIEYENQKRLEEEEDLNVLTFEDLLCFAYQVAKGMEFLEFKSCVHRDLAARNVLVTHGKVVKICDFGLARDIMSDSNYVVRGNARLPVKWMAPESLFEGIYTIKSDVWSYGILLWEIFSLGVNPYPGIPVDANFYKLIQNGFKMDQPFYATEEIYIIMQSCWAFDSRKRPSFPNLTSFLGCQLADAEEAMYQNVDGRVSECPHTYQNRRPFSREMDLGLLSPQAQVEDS
Chain of Dual specificity protein kinase CLK1 (Homo sapiens) (P49759 whole entry, looked up, canonical isoform): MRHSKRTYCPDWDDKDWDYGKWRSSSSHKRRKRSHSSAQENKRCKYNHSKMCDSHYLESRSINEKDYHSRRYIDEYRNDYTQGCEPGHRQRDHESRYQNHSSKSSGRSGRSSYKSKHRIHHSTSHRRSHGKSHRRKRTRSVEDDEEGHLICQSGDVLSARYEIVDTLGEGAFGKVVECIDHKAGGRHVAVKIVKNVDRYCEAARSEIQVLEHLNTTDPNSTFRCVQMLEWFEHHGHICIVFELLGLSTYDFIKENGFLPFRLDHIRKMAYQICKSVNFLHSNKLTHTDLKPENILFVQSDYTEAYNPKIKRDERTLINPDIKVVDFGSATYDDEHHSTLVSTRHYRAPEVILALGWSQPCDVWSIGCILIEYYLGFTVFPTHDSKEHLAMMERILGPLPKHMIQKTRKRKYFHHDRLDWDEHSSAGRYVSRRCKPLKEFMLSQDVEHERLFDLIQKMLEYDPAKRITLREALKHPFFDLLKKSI
Chain of Myotonin-protein kinase (Homo sapiens) (Q09013 whole entry): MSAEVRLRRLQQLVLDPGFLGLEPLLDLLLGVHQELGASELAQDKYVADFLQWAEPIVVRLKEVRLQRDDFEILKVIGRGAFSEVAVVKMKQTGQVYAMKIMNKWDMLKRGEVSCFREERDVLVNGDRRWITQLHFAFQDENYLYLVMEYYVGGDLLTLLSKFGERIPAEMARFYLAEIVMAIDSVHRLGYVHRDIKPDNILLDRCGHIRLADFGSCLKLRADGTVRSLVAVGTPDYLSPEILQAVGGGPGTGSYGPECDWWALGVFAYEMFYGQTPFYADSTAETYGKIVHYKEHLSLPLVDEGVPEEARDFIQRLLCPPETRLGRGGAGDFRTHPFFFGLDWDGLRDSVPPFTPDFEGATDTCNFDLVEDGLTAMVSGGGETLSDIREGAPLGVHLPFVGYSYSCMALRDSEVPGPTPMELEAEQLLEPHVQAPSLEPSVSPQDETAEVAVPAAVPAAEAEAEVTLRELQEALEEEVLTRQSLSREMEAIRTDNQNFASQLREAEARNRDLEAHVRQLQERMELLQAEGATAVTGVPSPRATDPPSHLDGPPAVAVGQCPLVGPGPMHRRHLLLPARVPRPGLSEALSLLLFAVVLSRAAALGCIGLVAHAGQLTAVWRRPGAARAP
Chain of Fibroblast growth factor receptor 4 (Homo sapiens) (P22455 22-802 limits assumed): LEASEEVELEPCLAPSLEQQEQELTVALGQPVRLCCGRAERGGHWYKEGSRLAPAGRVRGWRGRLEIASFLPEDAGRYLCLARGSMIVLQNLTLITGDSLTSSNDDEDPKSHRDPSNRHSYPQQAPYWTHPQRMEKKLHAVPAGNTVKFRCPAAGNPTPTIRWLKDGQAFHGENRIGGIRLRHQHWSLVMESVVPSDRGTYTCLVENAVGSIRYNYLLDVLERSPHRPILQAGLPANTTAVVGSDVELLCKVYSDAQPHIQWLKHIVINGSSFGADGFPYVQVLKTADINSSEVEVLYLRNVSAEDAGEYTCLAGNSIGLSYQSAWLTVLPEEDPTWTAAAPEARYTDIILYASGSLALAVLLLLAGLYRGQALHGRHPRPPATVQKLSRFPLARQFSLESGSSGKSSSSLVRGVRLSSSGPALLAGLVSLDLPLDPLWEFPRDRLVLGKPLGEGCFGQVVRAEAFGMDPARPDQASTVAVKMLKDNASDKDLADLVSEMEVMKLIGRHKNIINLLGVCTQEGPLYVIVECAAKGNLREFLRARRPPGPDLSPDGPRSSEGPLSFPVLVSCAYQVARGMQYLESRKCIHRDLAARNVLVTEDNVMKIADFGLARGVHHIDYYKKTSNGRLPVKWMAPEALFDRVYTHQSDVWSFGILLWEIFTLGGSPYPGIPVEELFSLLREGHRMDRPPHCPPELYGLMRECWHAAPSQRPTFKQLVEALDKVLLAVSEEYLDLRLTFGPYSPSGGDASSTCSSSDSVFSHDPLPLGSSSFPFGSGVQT
Chain of Mitogen-activated protein kinase 1 (Homo sapiens) (P28482 whole entry): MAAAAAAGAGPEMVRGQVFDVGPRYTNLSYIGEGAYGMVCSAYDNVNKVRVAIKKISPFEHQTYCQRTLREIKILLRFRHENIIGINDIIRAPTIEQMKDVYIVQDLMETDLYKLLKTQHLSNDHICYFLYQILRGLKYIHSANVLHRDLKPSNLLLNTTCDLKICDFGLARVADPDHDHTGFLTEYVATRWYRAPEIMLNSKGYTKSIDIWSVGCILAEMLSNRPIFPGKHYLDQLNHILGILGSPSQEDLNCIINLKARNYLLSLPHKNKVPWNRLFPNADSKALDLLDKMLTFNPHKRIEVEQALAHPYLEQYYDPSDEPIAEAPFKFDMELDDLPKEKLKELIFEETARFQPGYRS
Chain of Mitogen-activated protein kinase kinase kinase 13 (Homo sapiens) (O43283 whole entry): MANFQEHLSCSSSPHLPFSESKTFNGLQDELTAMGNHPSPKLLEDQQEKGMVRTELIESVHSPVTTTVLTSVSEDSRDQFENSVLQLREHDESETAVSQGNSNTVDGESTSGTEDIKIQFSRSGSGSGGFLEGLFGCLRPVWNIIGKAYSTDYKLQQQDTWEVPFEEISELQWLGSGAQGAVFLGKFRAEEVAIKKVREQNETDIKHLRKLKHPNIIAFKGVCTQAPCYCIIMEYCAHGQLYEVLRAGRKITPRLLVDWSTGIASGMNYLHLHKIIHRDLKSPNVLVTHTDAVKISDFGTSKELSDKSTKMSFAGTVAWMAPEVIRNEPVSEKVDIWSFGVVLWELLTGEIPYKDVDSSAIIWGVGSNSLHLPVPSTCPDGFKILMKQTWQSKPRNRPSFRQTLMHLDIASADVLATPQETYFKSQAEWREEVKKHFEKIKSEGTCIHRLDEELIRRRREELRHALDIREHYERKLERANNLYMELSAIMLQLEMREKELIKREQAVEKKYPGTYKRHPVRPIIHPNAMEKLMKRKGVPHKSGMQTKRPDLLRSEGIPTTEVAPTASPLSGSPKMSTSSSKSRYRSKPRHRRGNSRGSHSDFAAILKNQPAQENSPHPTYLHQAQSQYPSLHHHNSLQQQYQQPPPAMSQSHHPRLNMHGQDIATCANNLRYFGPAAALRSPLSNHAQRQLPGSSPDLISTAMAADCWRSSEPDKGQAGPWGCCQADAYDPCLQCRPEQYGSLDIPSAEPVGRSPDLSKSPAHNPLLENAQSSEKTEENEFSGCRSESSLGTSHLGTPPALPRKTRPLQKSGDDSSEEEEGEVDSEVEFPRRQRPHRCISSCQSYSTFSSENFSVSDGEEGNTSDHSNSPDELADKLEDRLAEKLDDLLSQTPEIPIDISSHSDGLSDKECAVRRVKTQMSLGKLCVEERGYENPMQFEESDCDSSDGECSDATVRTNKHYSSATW

CCCOc1ccc([C@H]2[C@H](C(=O)O)[C@@H](c3ccc4c(c3)OCO4)CN2CC(=O)Nc2c(CC)cccc2CC)cc1 [A-192621]
-35.5%: % Inhibition of Control Specific Binding (Mean n=2) [2]
inactive: residual activity [7] 62% | residual activity [8] 69% | residual activity [9] 58% | residual activity [10] 75% | residual activity [11] 100% | residual activity [12] 100% | residual activity [13] 93% | residual activity [14] 98% | residual activity [15] 87% | residual activity [16] 92% | residual activity [17] 100% | residual activity [18] 81% | residual activity [19] 100% | residual activity [20] 100% | residual activity [21] 100% | residual activity [22] 100% | residual activity [23] 85% | residual activity [24] 87% | residual activity [25] 97% | residual activity [26] 81% | residual activity [27] 100% | residual activity [28] 86% | residual activity [29] 63% | residual activity [30] 97% | residual activity [31] 79% | residual activity [33] 75% | residual activity [34] 59% | residual activity [35] 100% | residual activity [36] 91% | residual activity [37] 99% | residual activity [39] 84% | residual activity [40] 100% | residual activity [41] 100% | residual activity [42] 74% | residual activity [43] 88% | residual activity [44] 58%
3.4%: % Inhibition of Control Specific Binding (Mean n=2) [4]
72.1%: % Inhibition of Control Specific Binding (Mean n=2) [3]
active: residual activity [32] 47% | residual activity [38] 49%
-0.2%: % Inhibition of Control Specific Binding (Mean n=2) [1]
7%: % Inhibition of Control Specific Binding (Mean n=2) [6]
-4.4%: % Inhibition of Control Specific Binding (Mean n=2) [5]

CCCOc1ccc([C@@H]2[C@@H](C(=O)O)[C@H](c3ccc4c(c3)OCO4)CN2CC(=O)Nc2c(CC)cccc2CC)cc1 [A-1806262]
54.7%: % Inhibition of Control Specific Binding (Mean n=2) [3]
3.6%: % Inhibition of Control Specific Binding (Mean n=2) [1]
-10%: % Inhibition of Control Specific Binding (Mean n=2) [5]
4.1%: % Inhibition of Control Specific Binding (Mean n=2) [6]
1.2%: % Inhibition of Control Specific Binding (Mean n=2) [4]
inactive: residual activity [7] 82% | residual activity [8] 80% | residual activity [9] 83% | residual activity [10] 87% | residual activity [11] 96% | residual activity [12] 89% | residual activity [13] 100% | residual activity [14] 100% | residual activity [15] 93% | residual activity [16] 94% | residual activity [17] 89% | residual activity [18] 86% | residual activity [19] 100% | residual activity [20] 100% | residual activity [21] 100% | residual activity [22] 100% | residual activity [23] 99% | residual activity [24] 93% | residual activity [25] 94% | residual activity [26] 91% | residual activity [27] 99% | residual activity [28] 100% | residual activity [29] 66% | residual activity [30] 98% | residual activity [31] 84% | residual activity [32] 75% | residual activity [33] 100% | residual activity [34] 81% | residual activity [35] 77% | residual activity [36] 90% | residual activity [37] 97% | residual activity [38] 94% | residual activity [39] 100% | residual activity [40] 100% | residual activity [41] 97% | residual activity [42] 77% | residual activity [43] 100% | residual activity [44] 88%
-12.9%: % Inhibition of Control Specific Binding (Mean n=2) [2]
